Columns and labels:
[1] = tested on: tibiae from the fetus of CNP-transgenic mice or their nontransgenic littermates; test: organ culture of embryonic tibiae (4-d culture; longitudinal length and histology); format: cell-based, mouse; settings: cultured tibiae from nontransgenic littermates in the presence of 10^-7 M CNP
Method: Tibiae from the fetus of CNP-transgenic mice or their nontransgenic littermates were dissected out on 16.5-d post coitus and cultured for 4 days in suspension in an artificial medium. To inhibit the effect of the endogenous CNP, the tibial culture was performed with a non-peptide NP receptor antagonist, HS-142-1 (Komatsu et al., Circ Res. 78:606-614, 1996) at a concentration of 50 mg/L in the medium. At the end of the culture period, the cultured tibiae were measured for their longitudinal length, and fixed and embedded for histological analysis. Sections of 5 μm in thickness were cut from the embedded specimen and stained with Alcian blue (pH 2.5) and counterstained with hematoxylin/eosin. The cGMP contents of the cultured tibiae were measured by RIA at the end of the 4-d culture period. Glycosaminoglycan synthesis of the cultured tibiae was assessed by measuring ^35SO4 incorporation (Mericq et al., Pediatr Res 47: 189-193, 2000). Namely, cultured tibiae of the CNP-transgenic mice and their nontransgenic littermates were labeled with 5 μCi/ml Na2^35SO4 (Amersham, specific activity 100 mCi/mmol) for 1 h. […] The precipitate was washed three times with 1 ml of 0.1% cetylpyridinium chloride (Sigma Chemical Co.)—0.2 M NaCl and then dissolved in 1 ml of 23 N formic acid, after which the ^35SO4 content was determined by a liquid scintillation counter.

[2] = tested on: p44 and p42 MAP kinases (ERK1/2); test: phosphorylation of ERK1/2 after basic FGF stimulation, Western blotting in ATDC cells; format: cell-based, mouse; settings: pretreatment for 1 h, 10^-7 CNP
Method: (§1) Cells of the mouse chondrocyte strain ATDC (J. Bone. Miner. Res., 12, 1174-1188, 1997; supplied from Assistant Professor Shukunami and Professor […] of the Institute for Frontier Medical Sciences, Kyoto University) were pretreated with 1-10 ng/ml basic FGF (SIGMA), a ligand for FGFR3. Then, these cells were stimulated with 10^-9-10^-7 M CNP and assayed for intracellular cGMP production by the RIA method (cyclic GMP Assay Kit available from YAMASA CORPORATION). Phosphorylation of p44 and p42 MAP kinases (ERK1/2) and expression of […] and p44 MAP kinase (ERK1) after basic FGF stimulation were also assayed by Western blotting using phosphorylated MAP-K antibodies and MAP-K antibodies (both available from Cell Signaling Technology; MAP: mitogen-activated protein).

[3] = tested on: tibiae from fetal mice; settings: organ cultures of tibiae from fetal mice; J. Biol. Chem. 273: 11695-11700, 1998; cited from earlier work
[4] = tested on: organ cultures of tibiae from fetal mice, cultured chondrocytes and cultured osteoblasts; settings: cited from earlier work
[5] = tested on: mouse chondrocyte strain ATDC; test: intracellular cGMP production by RIA in ATDC cells after basic FGF pretreatment and CNP stimulation; format: cell-based; settings: pretreatment with 1 ng/ml basic FGF for 1 h
Method: as §1

Substance	elongation of the cartilagenous primordia with enlarged extracellular matrix and increased size of hypertrophic chondrocytes [1]	phosphorylation of ERK1/2 with basic FGF [2]	longitudinal bone growth [3]	potency in the production of cGMP compared with ANP and BNP [4]	intracellular cGMP production after CNP stimulation [5]
C-type natriuretic peptide [CNP]	potent	significantly inhibited	significantly promotes	more potent than ANP and BNP	–
basic FGF: a ligand for FGFR3 (SIGMA)	–	–	–	–	70 % of control

Reference: patent US6743425B2, “Therapeutic agents for achondroplasia” (priority 2001, dated 2004)
